PubChem BioAssay (NCI)
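Five compound concentrations were applied to cells in 96-well plates for 48 hours; endpoints were derived by simple linear interpolation of the resulting dose-response curve. Abbreviation: GI50, concentration required for 50% inhibition of growth. TGI: concentration producing complete growth inhibition.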

Assays:
Test in all cases: inhibition of tumour cell growth, NCI panel, 48 h
[1] = test system: SR leukemia
[2] = test system: A498 renal
[3] = test system: SN12C renal
[4] = test system: A549 NSCLC
[5] = test system: HT29 colon
[6] = test system: 786-0 renal
[7] = test system: OVCAR-4 ovarian
[8] = test system: MDA-MB-231 breast
[9] = test system: SF-268 CNS
[10] = test system: K-562 leukemia
[11] = test system: UACC-62 melanoma
[12] = test system: U251 CNS
[13] = test system: RXF 393 renal
[14] = test system: BT-549 breast
[15] = test system: SNB-75 CNS
[16] = test system: HCT-15 colon
[17] = test system: SK-MEL-5 melanoma
[18] = test system: SW-620 colon
[19] = test system: NCI-H522 lung
[20] = test system: NCI-H226 lung
[21] = test system: SF-539 CNS
[22] = test system: M14 melanoma
[23] = test system: PC-3 prostate
[24] = test system: HS 578T breast
[25] = test system: ACHN renal
[26] = test system: SK-MEL-28 melanoma
[27] = test system: DU-145 prostate
[28] = test system: SNB-19 CNS
[29] = test system: MCF7 breast
[30] = test system: NCI-H23 lung
[31] = test system: OVCAR-3 ovarian
[32] = test system: OVCAR-5 ovarian
[33] = test system: EKVX NSCLC
[34] = test system: CAKI-1 renal
[35] = test system: SF-295 CNS
[36] = test system: COLO 205 colon
[37] = test system: SK-OV-3 ovarian
[38] = test system: UACC-257 melanoma
[39] = test system: MDA-MB-435
[40] = test system: LOX IMVI melanoma
[41] = test system: KM12 colon
[42] = test system: T-47D breast
[43] = test system: NCI/ADR-RES ovarian
[44] = test system: UO-31 renal
[45] = test system: CCRF-CEM leukemia
[46] = test system: RPMI-8226 leukemia
[47] = test system: HCT-116 colon
[48] = test system: SK-MEL-2 melanoma
[49] = test system: HCC-2998 colon
[50] = test system: IGROV1 ovarian
[51] = test system: MALME-3M melanoma
[52] = test system: MOLT-4 leukemia
[53] = test system: HOP-92 NSCLC
[54] = test system: OVCAR-8 ovarian
[55] = test system: HOP-62 NSCLC
[56] = test system: HL-60(TB) leukemia
[57] = test system: NCI-H460 lung
[58] = test system: TK-10 renal

COc1cc2nccc(Oc3ccc(NC(=O)NC4CC4)c(Cl)c3)c2cc1C(N)=O
GI50 [1]: 30.5 µM | TGI [1]: > 100 µM | GI50 [2]: 4.63 µM | TGI [2]: 51.1 µM | GI50 [3]: 7.44 µM | TGI [3]: > 100 µM | GI50 [4]: 29.9 µM | TGI [4]: > 100 µM | GI50 [5]: > 100 µM | TGI [5]: > 100 µM | GI50 [6]: 13.4 µM | TGI [6]: 37.7 µM | GI50 [7]: 12.2 µM | TGI [7]: > 100 µM | GI50 [8]: 11.5 µM | TGI [8]: 43.8 µM | GI50 [9]: 10.3 µM | TGI [9]: 48 µM | GI50 [10]: 3.63 µM | TGI [10]: > 100 µM | GI50 [11]: 19.1 µM | TGI [11]: > 89.2 µM | GI50 [12]: 11.5 µM | TGI [12]: 42.8 µM | GI50 [13]: 12.4 µM | TGI [13]: 43.4 µM | GI50 [14]: 5.17 µM | TGI [14]: 27.2 µM | GI50 [15]: 2.82 µM | TGI [15]: 36.8 µM | GI50 [16]: 32 µM | TGI [16]: > 100 µM | GI50 [17]: 40 µM | TGI [17]: > 100 µM | GI50 [18]: 97.5 µM | TGI [18]: > 100 µM | GI50 [19]: 5.74 µM | TGI [19]: 28.2 µM | GI50 [20]: 1.1 µM | TGI [20]: > 43.4 µM | GI50 [21]: 0.536 µM | TGI [21]: 40 µM | GI50 [22]: 51 µM | TGI [22]: > 100 µM | GI50 [23]: 42.5 µM | TGI [23]: > 100 µM | GI50 [24]: 14.5 µM | TGI [24]: > 86.9 µM | GI50 [25]: 9.17 µM | TGI [25]: > 100 µM | GI50 [26]: 41.3 µM | TGI [26]: > 100 µM | GI50 [27]: 21.6 µM | TGI [27]: > 100 µM | GI50 [28]: 17.7 µM | TGI [28]: 62.1 µM | GI50 [29]: 36.2 µM | TGI [29]: > 100 µM | GI50 [30]: 15.6 µM | TGI [30]: > 74.6 µM | GI50 [31]: 23.1 µM | TGI [31]: > 100 µM | GI50 [32]: 47.4 µM | TGI [32]: > 100 µM | GI50 [33]: 26.1 µM | TGI [33]: > 100 µM | GI50 [34]: 23.9 µM | TGI [34]: > 64.2 µM | GI50 [35]: 23.4 µM | TGI [35]: > 85.7 µM | GI50 [36]: > 72.8 µM | TGI [36]: > 100 µM | GI50 [37]: 17.5 µM | TGI [37]: 94.6 µM | GI50 [38]: 27 µM | TGI [38]: > 93.7 µM | GI50 [39]: > 100 µM | TGI [39]: > 100 µM | GI50 [40]: 70.2 µM | TGI [40]: > 100 µM | GI50 [41]: 5.5 µM | TGI [41]: > 100 µM | GI50 [42]: 14.4 µM | TGI [42]: > 100 µM | GI50 [43]: 35.2 µM | TGI [43]: > 100 µM | GI50 [44]: 5.55 µM | TGI [44]: > 100 µM | GI50 [45]: 62.6 µM | TGI [45]: > 100 µM | GI50 [46]: 22.4 µM | TGI [46]: > 100 µM | GI50 [47]: 25.4 µM | TGI [47]: > 100 µM | GI50 [48]: 19.1 µM | TGI [48]: 48.6 µM | GI50 [49]: > 100 µM | TGI [49]: > 100 µM | GI50 [50]: 30.6 µM | TGI [50]: > 100 µM | GI50 [51]: 40.7 µM | TGI [51]: > 100 µM | GI50 [52]: 16.7 µM | TGI [52]: > 100 µM | GI50 [53]: 7.06 µM | TGI [53]: 38.3 µM | GI50 [54]: 17.5 µM | TGI [54]: > 79.1 µM | GI50 [55]: 21.4 µM | TGI [55]: 61.5 µM | GI50 [56]: > 100 µM | TGI [56]: > 100 µM | GI50 [57]: 39.9 µM | TGI [57]: > 100 µM | GI50 [58]: 14.5 µM | TGI [58]: > 78.5 µM
